Measurements reported in paper PMC13031153 (Acta Pharmaceutica Sinica. B, 2025).
Like-named read-outs stand apart in the source and are kept apart here.

How the values were obtained:
hκ-OR = details: cited from earlier work
μ-OR over δ-OR = details: cited from earlier work
δ-OR = details: cited from earlier work
mδ-OR mutants = type: cell-based, mouse
[1] = tested on: WT mδ-OR, mδ-OR-Q190^ECL2H, mδ-OR-Q201^ECL2H, mδ-OR-S45^N-terminalH, mδ-OR-E112^ECL1H; type: cell-based, mouse
mμ-OR mutants = type: cell-based, mouse; details: mμ-OR mutations at D^3.32, Y^3.33, V^5.43, I^6.51 (Fig. 5J)
δ/μ^N-terminal Chimera = type: cell-based, mouse
mδ-OR and its variants = experiment: Maximal K+ current density evoked by saturating full agonist, mδ-OR variants; type: cell-based, mouse
mδ-OR-K108^2.63N (mouse) = mδ-OR-K108^2.63N (mouse) (UniProt P32300); experiment: MST
mδ-OR-R291^ECL3A (mouse) = mδ-OR-R291^ECL3A (mouse) (UniProt P32300); experiment: MST
mδ-OR-R292^ECL3E (mouse) = mδ-OR-R292^ECL3E (mouse) (UniProt P32300); experiment: MST
[2] = molecular target: mδ-OR-K108^2.63N-L125^3.29I-R291^ECL3A (mouse) (UniProt P32300); experiment: MST
[3] = molecular target: mouse δ-opioid receptor, wild type (mouse) (UniProt P32300); experiment: MST
[4] = molecular target: mδ-OR-3M-PSA(28–30)-LGG (mouse) (UniProt P32300); experiment: MST

CC(C)[C@@H](CN1CC[C@@](C)(c2cccc(O)c2)[C@@H](C)C1)NC(=O)[C@H]1Cc2ccc(O)cc2CN1 [JDTic]
selectivity for hκ-OR (hκ-OR): more than 1000 fold

endomorphin-2 [EM-2]
μ-OR selectivity over δ-OR (μ-OR over δ-OR): > 1500 fold

deltorphin
selectivity for δ-OR (δ-OR): more than 1000 fold

CN1CC[C@]23c4c5ccc(O)c4O[C@H]2[C@@H](O)C=C[C@H]3[C@H]1C5 [morphine]
change in potency for mδ-OR (mδ-OR mutants; mutations of K108^2.63 to Ala or Asn): increased the potency
agonist-induced activation of mutants (mδ-OR mutants; mδ-OR mutations at D^3.32, Y^3.33, V^5.43, I^6.51 (Fig. 5H)): significant reductions
effect of ZnCl2 on agonist activation (control) ([1]; 1 mmol/L ZnCl2, WT mδ-OR, mδ-OR-Q190^ECL2H, mδ-OR-Q201^ECL2H): did not alter
effect of ZnCl2 on agonist activation (control) ([1]; 3 mmol/L ZnCl2, mδ-OR-S45^N-terminalH, mδ-OR-E112^ECL1H): did not alter
agonist-induced activation of mutants (mμ-OR mutants): significant reductions

CC[C@H](C)[C@H](NC(=O)[C@H](C)NC(=O)[C@H](CC(N)=O)NC(=O)[C@H](CCCCN)NC(=O)[C@H](Cc1ccccc1)NC(=O)[C@H](CC(C)C)NC(=O)[C@@H](NC(=O)[C@@H](NC(=O)[C@H](CC(C)C)NC(=O)[C@@H]1CCCN1C(=O)[C@@H](NC(=O)[C@H](CCC(N)=O)NC(=O)[C@H](CO)NC(=O)[C@H](CCCCN)NC(=O)[C@H](CCC(=O)O)NC(=O)[C@H](CO)NC(=O)[C@@H](NC(=O)[C@H](CCSC)NC(=O)[C@H](Cc1ccccc1)NC(=O)CNC(=O)CNC(=O)[C@@H](N)Cc1ccc(O)cc1)[C@@H](C)O)[C@@H](C)O)C(C)C)[C@@H](C)O)C(=O)N[C@H](C(=O)N[C@@H](CCCCN)C(=O)N[C@@H](CC(N)=O)C(=O)N[C@@H](C)C(=O)N[C@@H](Cc1ccc(O)cc1)C(=O)N[C@@H](CCCCN)C(=O)N[C@@H](CCCCN)C(=O)NCC(=O)N[C@@H](CCC(=O)O)C(=O)O)[C@@H](C)CC [β-endorphin]
EC50 (δ/μ^N-terminal Chimera): 0.0103 ± 0.0009 µM
preference between μ-OR and δ-OR (μ-OR over δ-OR): no discernible preference

Leu-enkephalin
maximum currents vs wild-type receptor (mδ-OR and its variants): statistically indistinguishable from wild-type receptor

endomorphin-1 (peptide)
Kd (mδ-OR-K108^2.63N (mouse)): 0.299 µM
Kd (mδ-OR-R291^ECL3A (mouse)): 0.344 µM
Kd (mδ-OR-R292^ECL3E (mouse)): 0.408 µM
Kd [2]: 0.00942 µM
Kd [3]: 2.94 µM
Kd [4]: 0.00103 µM
